Results from patent US20240374753A1, “USE OF AN AGONIST OF FORMYL PEPTIDE RECEPTORS 1 AND 2 FOR TREATING OCULAR INFLAMMATORY DISEASES” (ALLGENESIS BIOTHERAPEUTICS INC., priority 2023, published 2024).

Key:
[1] = Stabilisation/solubility of AG-80308 with HPβCD; format: physicochemical; conditions: storage or stress conditions
[2] = tested on: patients with dry eye disease; test: 7-item VAS symptom assessment, Phase 1b study; format: in vivo, human; conditions: overall study summary
Experimental: (§1) A multicenter, double-masked, randomized, parallel-group Phase 1b study evaluating the safety, tolerability, and dose-response of AG-80308 ophthalmic solution administered twice daily for 3 months in 84 patients with dry eye disease was conducted. […] 2-Hydroxypropyl-beta-cyclodextrin (HPβCD) was used in formulations A and B. The efficacy measures included both signs (ocular surface staining, tear film breakup time, Schirmer's test, meibomian gland assessments) and symptoms (7-item visual analog scale (VAS) assessments: burning/stinging, itching, foreign body sensation, eye discomfort, eye dryness, photophobia, pain and ocular surface disease index).
(§2) In this study, a single eye drop (approximately 30 μL) of AG-80308 was administered BID (approximately 12 hours apart) to the study eye every day until the Day 84 visit.
The VAS symptom assessment was performed at Visit 1 (Day −30 to Day −2), Visit 2 (Day 1), Visit 3 (Day 15), Visit 4 (Day 43), and Visit 5 (Day 84). Subjects were asked to rate each ocular symptom, unrelated to study drug instillation, by placing a vertical mark on the horizontal line to indicate the level of discomfort. Zero millimeters (mm) corresponds to “no discomfort” and 100 mm corresponds to “maximal discomfort. The symptoms evaluated were burning/stinging, itching, foreign body sensation, eye discomfort, eye dryness, photophobia, and pain. […]

[3] = tested on: patients with dry eye disease; test: Safety and tolerability (TEAEs), Phase 1b study; format: in vivo, human; conditions: BID for 3 months, both formulations
[4] = Preclinical studies; format: in vivo
[5] = tested on: patients with dry eye disease; test: Corneal fluorescein staining (NEI Scale), Phase 1b study; format: in vivo, human; conditions: for Corneal staining, unit improvement from baseline: p<0.05
Experimental: as §1, §2
Corneal fluorescein staining was assessed in each eye at Visit 1 (Day −30 to Day −2), Visit 2 (Day 1), Visit 4 (Day 43), and Visit 5 (Day 84) using the NEI Scale. The NEI Scale uses a standardized grading system of 0 to 3 using whole number units for each of the […] areas on each cornea. Grade 0 was specified when no staining is present.

[6] = tested on: patients with dry eye disease; test: Ocular surface disease index, Phase 1b study; format: in vivo, human; conditions: overall study summary
Experimental: as §1, §2

Question: Which results are given for `CC(C)C[C@H](NC(=O)Nc1ccc(Br)cc1)C(=O)NCC(=O)O` [AG-80308, {[(2S)-2-{[(4-bromophenyl)carbamoyl]amino}-4-methylpentanoyl]amino}acetic acid]?
Answer: Effect of HPβCD on stability and solubility of AG-80308 [1]: increasing solubility of AG-80308 and its degradant, preventing precipitation; 7-item visual analog scale for dry eye symptoms [2]: clinically meaningful unit reductions; Safety [3]: proven safe; Efficacy in preclinical studies [4]: rapid efficacy similar to steroids without any impairment of wound healing; Safety and tolerability in preclinical studies [4]: wide margin of safety and tolerability; Corneal staining, unit improvement from baseline ([5]; Day 43, LS Mean±SE): −2.1±0.57; Corneal staining, unit improvement from baseline ([5]; Day 84, LS Mean±SE): −2.7±0.57; Corneal and conjunctival staining ([5]; overall study summary): clinically meaningful unit reductions; Ocular surface disease index scores [6]: clinically meaningful unit reductions
